Results published in ChEMBL document CHEMBL4043275, “Design, synthesis and biological evaluation of phthalimide-alkylamine derivatives as balanced multifunctional cholinesterase and monoamine oxidase-B inhibitors for the treatment of Alzheimer's disease” (Bioorg Med Chem Lett, 2017).
Calls of active or inactive are those of the source. No cut-off for these calls is given here.

What was measured:
SH-SY5Y [1] = experiment: Cytotoxicity against human SH-SY5Y cells assessed as decrease in cell viability up to 10 uM after 24 hrs by MTT assay; type: cell-based
Acetylcholinesterase [2] = target: T1, Acetylcholinesterase (Rattus norvegicus, UniProt P37136); experiment: Inhibition of rat cortex homogenate AChE using acetylthiocholine chloride as substrate incubated for 15 mins by Ellman's method
T1 sequence (P37136 whole entry): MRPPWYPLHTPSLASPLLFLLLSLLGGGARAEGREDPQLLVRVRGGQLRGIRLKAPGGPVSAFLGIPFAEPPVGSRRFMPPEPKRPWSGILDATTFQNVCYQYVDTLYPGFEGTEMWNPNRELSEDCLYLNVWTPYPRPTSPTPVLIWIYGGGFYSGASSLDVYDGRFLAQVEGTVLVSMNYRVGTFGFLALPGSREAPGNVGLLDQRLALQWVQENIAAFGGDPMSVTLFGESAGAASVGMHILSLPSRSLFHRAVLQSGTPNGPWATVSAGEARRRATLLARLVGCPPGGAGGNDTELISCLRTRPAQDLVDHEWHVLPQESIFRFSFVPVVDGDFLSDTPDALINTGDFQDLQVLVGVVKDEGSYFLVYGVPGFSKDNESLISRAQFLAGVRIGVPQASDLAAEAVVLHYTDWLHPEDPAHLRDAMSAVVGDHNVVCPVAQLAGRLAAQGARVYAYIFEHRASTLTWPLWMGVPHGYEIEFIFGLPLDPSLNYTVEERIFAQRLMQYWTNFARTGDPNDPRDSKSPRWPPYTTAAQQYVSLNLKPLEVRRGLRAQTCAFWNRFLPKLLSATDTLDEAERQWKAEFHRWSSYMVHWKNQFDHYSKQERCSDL

[3] = target: Acetylcholinesterase (Electrophorus electricus) (UniProt O42275); experiment: Mixed-type inhibition of electric eel AChE at 0.5 to 2 uM using acetylthiocholine chloride as substrate by Lineweaver-Burk plot analysis
Acetylcholinesterase (Electrophorus electricus), sequence (O42275 24-633 limits assumed): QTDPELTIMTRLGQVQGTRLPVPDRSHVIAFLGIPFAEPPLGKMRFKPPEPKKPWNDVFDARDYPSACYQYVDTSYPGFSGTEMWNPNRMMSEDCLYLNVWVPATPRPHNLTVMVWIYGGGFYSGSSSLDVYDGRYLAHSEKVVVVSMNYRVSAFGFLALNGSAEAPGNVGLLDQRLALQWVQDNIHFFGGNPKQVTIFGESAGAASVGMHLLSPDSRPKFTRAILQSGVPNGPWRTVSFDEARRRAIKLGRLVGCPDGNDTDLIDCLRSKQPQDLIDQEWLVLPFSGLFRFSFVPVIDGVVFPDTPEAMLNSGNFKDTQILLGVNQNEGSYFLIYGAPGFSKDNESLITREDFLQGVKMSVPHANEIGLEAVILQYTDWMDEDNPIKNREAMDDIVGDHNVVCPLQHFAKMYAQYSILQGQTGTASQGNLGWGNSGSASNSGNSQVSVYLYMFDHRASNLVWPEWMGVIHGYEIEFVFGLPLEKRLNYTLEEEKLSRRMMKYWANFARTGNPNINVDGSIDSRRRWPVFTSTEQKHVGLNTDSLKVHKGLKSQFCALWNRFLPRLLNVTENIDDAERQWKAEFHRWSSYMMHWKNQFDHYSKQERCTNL

[4] = Effective permeability of the compound at 100 ug/ml by PAMPA-BBB assay
Butyrylcholinesterase = Butyrylcholinesterase (Rattus norvegicus, UniProt Q9JKC1); experiment: Inhibition of rat serum BChE using butyrylthiocholine chloride as substrate incubated for 15 mins by Ellman's method
Butyrylcholinesterase, sequence (Q9JKC1 whole entry): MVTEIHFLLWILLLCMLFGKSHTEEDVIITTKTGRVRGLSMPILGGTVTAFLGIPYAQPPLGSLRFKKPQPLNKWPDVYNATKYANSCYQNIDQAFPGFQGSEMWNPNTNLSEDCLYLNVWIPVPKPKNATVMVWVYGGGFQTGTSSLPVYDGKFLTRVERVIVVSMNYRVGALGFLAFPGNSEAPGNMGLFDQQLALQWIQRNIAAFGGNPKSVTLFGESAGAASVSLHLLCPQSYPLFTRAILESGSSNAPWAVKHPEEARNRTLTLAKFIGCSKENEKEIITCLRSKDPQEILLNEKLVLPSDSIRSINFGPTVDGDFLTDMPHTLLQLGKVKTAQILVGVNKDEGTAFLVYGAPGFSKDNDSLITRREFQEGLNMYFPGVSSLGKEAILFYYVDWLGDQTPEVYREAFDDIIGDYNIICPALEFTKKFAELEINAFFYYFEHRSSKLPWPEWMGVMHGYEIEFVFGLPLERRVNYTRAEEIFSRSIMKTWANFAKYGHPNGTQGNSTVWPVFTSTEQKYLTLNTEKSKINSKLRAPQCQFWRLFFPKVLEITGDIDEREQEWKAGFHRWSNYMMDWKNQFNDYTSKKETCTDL

Cholinesterase [5] = target: Cholinesterase (Homo sapiens, UniProt P06276); experiment: Inhibition of human serum BChE using butyrylthiocholine chloride as substrate incubated for 15 mins by Ellman's method
Cholinesterase (Homo sapiens, UniProt P06276), sequence (P06276 whole entry): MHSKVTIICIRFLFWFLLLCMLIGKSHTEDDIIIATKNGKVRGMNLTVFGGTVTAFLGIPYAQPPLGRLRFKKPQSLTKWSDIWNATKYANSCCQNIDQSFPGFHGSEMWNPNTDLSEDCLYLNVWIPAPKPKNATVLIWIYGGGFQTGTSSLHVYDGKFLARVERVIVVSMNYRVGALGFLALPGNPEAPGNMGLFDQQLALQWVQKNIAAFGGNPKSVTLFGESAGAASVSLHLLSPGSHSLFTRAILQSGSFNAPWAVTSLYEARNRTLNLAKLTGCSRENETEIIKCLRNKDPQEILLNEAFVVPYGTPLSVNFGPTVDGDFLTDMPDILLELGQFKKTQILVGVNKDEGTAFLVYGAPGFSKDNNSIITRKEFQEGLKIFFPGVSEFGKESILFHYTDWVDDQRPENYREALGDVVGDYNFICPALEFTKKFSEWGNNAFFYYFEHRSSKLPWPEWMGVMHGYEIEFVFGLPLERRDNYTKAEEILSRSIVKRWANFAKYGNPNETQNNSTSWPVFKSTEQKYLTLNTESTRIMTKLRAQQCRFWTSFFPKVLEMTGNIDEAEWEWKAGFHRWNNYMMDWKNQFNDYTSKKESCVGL

[6] = target: T2, Amine oxidase [flavin-containing] A (Homo sapiens, UniProt P21397); experiment: Inhibition of human recombinant MAO-A expressed in baculovirus infected BTI insect cells at 20 uM using kynuramine as substrate after 30 mins by fluorescence assay relative to control; conditions: 0.5 h
T2 sequence (P21397 whole entry): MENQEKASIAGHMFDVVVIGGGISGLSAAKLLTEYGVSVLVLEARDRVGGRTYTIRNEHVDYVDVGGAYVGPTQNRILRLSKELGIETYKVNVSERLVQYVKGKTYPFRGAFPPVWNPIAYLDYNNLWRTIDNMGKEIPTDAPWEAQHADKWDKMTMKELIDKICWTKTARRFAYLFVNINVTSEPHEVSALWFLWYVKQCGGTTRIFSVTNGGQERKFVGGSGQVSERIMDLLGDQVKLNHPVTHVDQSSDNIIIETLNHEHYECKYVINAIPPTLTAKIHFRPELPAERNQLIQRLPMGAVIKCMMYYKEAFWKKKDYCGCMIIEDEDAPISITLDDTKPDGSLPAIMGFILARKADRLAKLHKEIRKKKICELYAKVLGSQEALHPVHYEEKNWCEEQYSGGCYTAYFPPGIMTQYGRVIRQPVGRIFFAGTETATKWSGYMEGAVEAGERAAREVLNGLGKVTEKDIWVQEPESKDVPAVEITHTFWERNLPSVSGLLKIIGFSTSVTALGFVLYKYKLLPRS

Acetylcholinesterase [7] = target: Acetylcholinesterase (Electrophorus electricus, UniProt O42275); experiment: Inhibition of electric eel AChE using acetylthiocholine chloride as substrate incubated for 15 mins by Ellman's method
Acetylcholinesterase (Electrophorus electricus, UniProt O42275), sequence (O42275 whole entry): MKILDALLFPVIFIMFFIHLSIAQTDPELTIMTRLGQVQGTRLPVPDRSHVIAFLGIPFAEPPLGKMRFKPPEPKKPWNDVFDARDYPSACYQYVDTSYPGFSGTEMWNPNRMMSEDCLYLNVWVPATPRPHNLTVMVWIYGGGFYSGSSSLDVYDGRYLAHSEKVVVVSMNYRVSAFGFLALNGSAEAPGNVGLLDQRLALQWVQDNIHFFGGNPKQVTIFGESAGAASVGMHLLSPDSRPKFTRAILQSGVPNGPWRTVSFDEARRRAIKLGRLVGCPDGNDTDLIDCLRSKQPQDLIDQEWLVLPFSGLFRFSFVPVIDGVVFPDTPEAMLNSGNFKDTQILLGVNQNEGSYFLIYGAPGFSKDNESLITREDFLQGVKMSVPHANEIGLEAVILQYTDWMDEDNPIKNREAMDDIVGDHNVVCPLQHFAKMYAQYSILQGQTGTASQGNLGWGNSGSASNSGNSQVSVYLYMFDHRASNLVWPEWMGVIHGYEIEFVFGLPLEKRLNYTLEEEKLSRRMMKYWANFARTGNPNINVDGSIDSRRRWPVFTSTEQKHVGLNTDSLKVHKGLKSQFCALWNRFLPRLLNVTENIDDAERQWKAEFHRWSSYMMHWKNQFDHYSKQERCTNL

[8] = target: T3, Amine oxidase [flavin-containing] B (Homo sapiens, UniProt P27338); experiment: Inhibition of human recombinant MAO-B expressed in baculovirus infected BTI insect cells using kynuramine as substrate after 30 mins by fluorescence assay; type: cell-based
T3 sequence (P27338 whole entry): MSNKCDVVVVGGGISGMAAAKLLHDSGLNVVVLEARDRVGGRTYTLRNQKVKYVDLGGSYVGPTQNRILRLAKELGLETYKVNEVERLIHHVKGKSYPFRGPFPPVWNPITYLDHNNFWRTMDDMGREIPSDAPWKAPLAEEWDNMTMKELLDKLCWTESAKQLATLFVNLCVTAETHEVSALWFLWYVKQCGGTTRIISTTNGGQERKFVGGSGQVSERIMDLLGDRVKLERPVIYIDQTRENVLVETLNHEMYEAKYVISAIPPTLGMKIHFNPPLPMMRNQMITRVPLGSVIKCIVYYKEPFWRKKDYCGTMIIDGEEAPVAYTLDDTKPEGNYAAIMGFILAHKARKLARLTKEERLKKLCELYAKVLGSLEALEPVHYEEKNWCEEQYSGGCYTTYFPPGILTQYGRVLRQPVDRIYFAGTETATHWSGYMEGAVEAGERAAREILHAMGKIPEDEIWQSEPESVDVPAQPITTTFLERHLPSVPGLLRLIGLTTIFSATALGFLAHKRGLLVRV

[9] = Selectivity index, ratio of IC50 for equine serum BChE to IC50 for electric eel AChE
SH-SY5Y [10] = experiment: Cytotoxicity against human SH-SY5Y cells assessed as decrease in cell viability at 100 uM after 24 hrs by MTT assay; type: cell-based
Cholinesterase [11] = target: Cholinesterase (Equus caballus, UniProt P81908); experiment: Inhibition of equine serum BChE using butyrylthiocholine chloride as substrate incubated for 15 mins by Ellman's method
Cholinesterase (Equus caballus, UniProt P81908), sequence (P81908 whole entry): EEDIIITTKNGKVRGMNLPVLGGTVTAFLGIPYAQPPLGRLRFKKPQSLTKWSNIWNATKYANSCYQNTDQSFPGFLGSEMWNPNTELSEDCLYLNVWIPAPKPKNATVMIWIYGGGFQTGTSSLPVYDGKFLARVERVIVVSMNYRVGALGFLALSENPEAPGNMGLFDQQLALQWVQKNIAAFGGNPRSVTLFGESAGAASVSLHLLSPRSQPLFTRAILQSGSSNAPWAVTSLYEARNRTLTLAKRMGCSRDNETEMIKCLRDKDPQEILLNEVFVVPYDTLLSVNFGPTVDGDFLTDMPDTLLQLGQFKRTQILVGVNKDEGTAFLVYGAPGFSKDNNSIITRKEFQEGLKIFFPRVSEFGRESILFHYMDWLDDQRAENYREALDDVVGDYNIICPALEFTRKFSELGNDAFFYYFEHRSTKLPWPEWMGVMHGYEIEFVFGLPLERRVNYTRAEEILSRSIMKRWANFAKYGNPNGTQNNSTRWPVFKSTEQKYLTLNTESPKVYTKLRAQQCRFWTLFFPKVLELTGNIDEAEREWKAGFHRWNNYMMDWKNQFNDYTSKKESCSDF

Acetylcholinesterase [12] = target: Acetylcholinesterase (Homo sapiens, UniProt P22303); experiment: Inhibition of human erythrocyte AChE using acetylthiocholine chloride as substrate incubated for 15 mins by Ellman's method
Acetylcholinesterase (Homo sapiens, UniProt P22303), sequence (P22303 whole entry): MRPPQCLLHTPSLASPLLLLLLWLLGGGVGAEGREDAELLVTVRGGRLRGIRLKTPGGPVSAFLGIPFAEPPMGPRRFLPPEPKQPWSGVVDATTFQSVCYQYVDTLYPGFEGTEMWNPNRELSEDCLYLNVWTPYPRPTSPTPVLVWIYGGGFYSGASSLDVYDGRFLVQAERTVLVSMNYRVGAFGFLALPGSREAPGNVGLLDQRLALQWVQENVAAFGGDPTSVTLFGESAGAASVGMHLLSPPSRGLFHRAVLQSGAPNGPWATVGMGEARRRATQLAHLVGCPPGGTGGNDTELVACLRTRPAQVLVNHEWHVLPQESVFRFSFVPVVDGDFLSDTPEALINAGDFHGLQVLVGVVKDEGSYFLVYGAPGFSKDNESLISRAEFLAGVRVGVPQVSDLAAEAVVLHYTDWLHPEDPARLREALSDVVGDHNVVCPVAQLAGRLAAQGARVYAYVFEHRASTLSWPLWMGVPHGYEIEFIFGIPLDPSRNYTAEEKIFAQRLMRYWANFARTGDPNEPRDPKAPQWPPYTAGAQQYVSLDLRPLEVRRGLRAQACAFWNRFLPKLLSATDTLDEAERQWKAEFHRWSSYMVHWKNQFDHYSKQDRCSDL

[13] = target: Butyrylcholinesterase (Rattus norvegicus) (UniProt Q9JKC1); experiment: Inhibition of rat serum BChE at 50 uM using butyrylthiocholine chloride as substrate incubated for 15 mins by Ellman's method relative to control
Butyrylcholinesterase (Rattus norvegicus), sequence (Q9JKC1 as listed by the source): as the sequence (Q9JKC1 whole entry) above

[14] = target: T4, Acetylcholinesterase (Rattus norvegicus) (UniProt P37136); experiment: Inhibition of rat cortex homogenate AChE at 50 uM using acetylthiocholine chloride as substrate incubated for 15 mins by Ellman's method relative to control
T4 sequence (whole entry): T1 sequence (P37136 whole entry)

[15] = target: Cholinesterase (Equus caballus) (UniProt P81908); experiment: Inhibition of equine serum BChE at 50 uM using butyrylthiocholine chloride as substrate incubated for 15 mins by Ellman's method relative to control
Cholinesterase (Equus caballus), sequence (P81908 whole entry): as the sequence (P81908 whole entry) above

[16] = target: Acetylcholinesterase (Electrophorus electricus) (UniProt O42275); experiment: Inhibition of electric eel AChE at 50 uM using acetylthiocholine chloride as substrate incubated for 15 mins by Ellman's method relative to control

Row | Structure (SMILES) | Activity (SH-SY5Y [1]) | IC50 (Acetylcholinesterase [2]) [nM] | inhibition [3] | Papp at 100 ug/ml [4] [×10⁻⁶ cm/s] | IC50 (Butyrylcholinesterase) [nM] | IC50 (Cholinesterase [5]) [µM] | inhibition at 20 µM [6] [%] | IC50 (Acetylcholinesterase [7]) [nM] | IC50 [8] [nM] | Ratio IC50 [9] | Activity (SH-SY5Y [10]) [%] | IC50 (Cholinesterase [11]) [nM] | IC50 (Acetylcholinesterase [12]) [nM] | inhibition [13] [%] | inhibition [14] [%] | inhibition [15] [%] | inhibition [16] [%]
1 | C#CCN(CCCN1C(=O)c2ccccc2C1=O)Cc1ccccc1 | Non-Toxic | 270 | Active | 26 | 2200 | 3.8 | < 5 | 840 | 2600 | 3 | 86.7 | 2500 | 1200 | – | – | – | –
2 | O=C1NC(=O)c2ccccc21 | – | – | – | – | – | – | – | – | – | – | – | – | – | < 5 | < 5 | < 5 | < 5
